Results on 31 compounds are retold here after patent US8822520B2, “Substituted bicyclic HCV inhibitors” (Presidio Pharmaceuticals, Inc., priority 2010, dated 2014).

The structures appear in SMILES notation. Some results are limits rather than exact numbers.

The subject of one test is HCV genotype 1b replicon in Huh 7 cells (HCV 1b_Huh-Luc/Neo-ET cell line). Put plainly: HCV replicon assay (luciferase readout). In kind it is cell-based. As to conditions: Hepatitis C virus, Huh-7, 72 h, read-out: Inhibition of HCV genotype lb. How it is done: Biological activity of the compounds of the invention was determined using an HCV replicon assay. The HCV 1b_Huh-Luc/Neo-ET cell line persistently expressing a bicistronic genotype 1b replicon in Huh 7 cells was obtained from ReBLikon GMBH. This cell line was used to test compound inhibition using luciferase enzyme activity readout as a measurement of compound inhibition of replicon levels.
On Day 1 (the day after plating cells), each compound is added in triplicate to the cells. Plates are incubated for 72 h prior to determining luciferase levels. Enzyme activity was measured using a Bright-Glo Kit (cat. number E2620) manufactured by Promega Corporation. The following equation was used to generate a percent control value for each compound. % Control=(Compound Luciferase Level/Control Luciferase Level)*100
The EC50 value was determined using GraphPad Prism and the following equation: Y=Bottom asymptote+(Top asymptote−Bottom asymptote)/(1+10^((Log EC50−X)*HillSlope))
EC50 values of compounds are determined several times in the replicon assay to generate average EC50 values.
On to `COCCOc1cc(-c2cnc([C@@H]3CCCN3C(=O)[C@@H](NC(=O)OC)C(C)C)[nH]2)ccc1-c1ccc(-c2cnc([C@@H]3CCCN3C(=O)[C@@H](NC(=O)OC)C(C)C)[nH]2)c(OCCOC)c1` [Compound 51], for which the EC50 was under 1 nM. Still for that read-out and setting: in the case of `COCCOc1cc(-c2cnc([C@@H]3CCCN3C(=O)[C@@H](NC(=O)OC)C(C)C)[nH]2)ccc1-c1ccc(-c2cnc([C@@H]3CCCN3C(=O)[C@@H](NC(=O)OC)C(C)C)[nH]2)cc1` [Compound 52] it was under 1 nM; in that of `COCCOc1cc(-c2ccc(-c3cnc([C@@H]4CCCN4C(=O)[C@@H](NC(=O)OC)C(C)C)[nH]3)cc2)ccc1-c1cnc([C@@H]2CCCN2C(=O)[C@@H](NC(=O)OC)C(C)C)[nH]1` [Compound 53], under 1 nM.

Turning to `COCCOc1cc(-c2ccc(-c3cnc([C@@H]4CCCN4C(=O)[C@@H](NC(=O)OC)C(C)C)[nH]3)c(OCCOC)c2)ccc1-c1cnc([C@@H]2CCCN2C(=O)[C@@H](NC(=O)OC)C(C)C)[nH]1` [Compound 54], the EC50 lay within 1 to 9.9 nM. In the case of `COCCOc1cc(-c2cnc([C@@H]3CCCN3C(=O)[C@@H](NC(=O)OC)C(C)C)[nH]2)c(OCCOC)cc1-c1ccc(-c2cnc([C@@H]3CCCN3C(=O)[C@@H](NC(=O)OC)C(C)C)[nH]2)cc1` [Compound 55], the EC50 was under 1 nM. For the compound `COCCOc1c(-c2ccc(-c3cnc([C@@H]4C[C@@H](O)CN4C(=O)[C@@H](NC(=O)OC)C(C)C)[nH]3)cc2)ccc(-c2cnc([C@@H]3CCCN3C(=O)[C@@H](NC(=O)OC)C(C)C)[nH]2)c1OCCOC` [Compound 60], the EC50 is under 1 nM. The same measure, in the same setting: with `COCCOc1cc(-c2cnc([C@@H]3CCCN3C(=O)[C@H](COC)NC(=O)OC)[nH]2)ccc1-c1ccc(-c2cnc([C@@H]3CCCN3C(=O)[C@H](COC)NC(=O)OC)[nH]2)cc1OCCOC` [Compound 75] the figure was 1 to 9.9 nM; with `COCCOc1cc(-c2cnc([C@@H]3CCCN3C(=O)[C@@H](NC(=O)OC)C(C)(C)C)[nH]2)ccc1-c1ccc(-c2cnc([C@@H]3CCCN3C(=O)[C@@H](NC(=O)OC)C(C)(C)C)[nH]2)cc1OCCOC` [Compound 76], under 1 nM.

Take `COCCOc1cc(-c2cnc([C@@H]3CCCN3C(=O)[C@@H](NC(=O)OC)C3CCOCC3)[nH]2)ccc1-c1ccc(-c2cnc([C@@H]3CCCN3C(=O)[C@@H](NC(=O)OC)C3CCOCC3)[nH]2)cc1OCCOC` [Compound 77]: the EC50 fell in the range of 1 to 9.9 nM. Take `COCCOc1cc(-c2cnc([C@@H]3CCCN3C(=O)[C@H](NC(=O)OC)c3ccsc3)[nH]2)ccc1-c1ccc(-c2cnc([C@@H]3CCCN3C(=O)[C@H](NC(=O)OC)c3ccsc3)[nH]2)cc1OCCOC` [Compound 78]: the EC50 was 1 to 9.9 nM.

Turning to `COCCOc1cc(-c2cnc([C@@H]3CCCN3C(=O)[C@H](NC(=O)OC)c3cccs3)[nH]2)ccc1-c1ccc(-c2cnc([C@@H]3CCCN3C(=O)[C@H](NC(=O)OC)c3cccs3)[nH]2)cc1OCCOC` [Compound 79], the EC50 is under 1 nM. As for `COC(=O)N[C@H](C(=O)N1CCC[C@H]1c1ncc(-c2ccc(-c3ccc(-c4cnc([C@@H]5CCCN5C(=O)[C@@H](NC(=O)OC)C(C)C)[nH]4)c4c3OCCOCCOCCO4)cc2)[nH]1)C(C)C` [Compound 80], the EC50 is under 1 nM. The same measure, in the same setting: in the case of `COCCOc1cc(-c2cnc([C@@H]3CCCN3C(=O)[C@@H](c3ccccc3)N(C)C)[nH]2)ccc1-c1ccc(-c2cnc([C@@H]3CCCN3C(=O)[C@@H](c3ccccc3)N(C)C)[nH]2)cc1OCCOC` [Compound 81] it was 1 to 9.9 nM. With `COCCOc1cc(-c2cnc([C@@H]3CCCN3C(=O)[C@@H](c3ccccc3)N3CCCC3)[nH]2)ccc1-c1ccc(-c2cnc([C@@H]3CCCN3C(=O)[C@@H](c3ccccc3)N3CCCC3)[nH]2)cc1OCCOC` [Compound 82], the EC50 was 1 to 9.9 nM. In the case of `COCCOc1cc(-c2cnc([C@@H]3CCCN3C(=O)[C@H](NC(C)=O)c3ccccc3)[nH]2)ccc1-c1ccc(-c2cnc([C@@H]3CCCN3C(=O)[C@H](NC(C)=O)c3ccccc3)[nH]2)cc1OCCOC` [Compound 83], the EC50 is 1 to 9.9 nM.

With `COCCOc1cc(-c2cnc([C@@H]3CCCN3C(=O)[C@H](NS(C)(=O)=O)c3ccccc3)[nH]2)ccc1-c1ccc(-c2cnc([C@@H]3CCCN3C(=O)[C@H](NS(C)(=O)=O)c3ccccc3)[nH]2)cc1OCCOC` [Compound 84], the EC50 fell in the range of 1 to 9.9 nM.

As to `CNC(=O)N[C@@H](C(=O)N1CCC[C@H]1c1ncc(-c2ccc(-c3ccc(-c4cnc([C@@H]5CCCN5C(=O)[C@H](NC(=O)NC)c5ccccc5)[nH]4)cc3OCCOC)c(OCCOC)c2)[nH]1)c1ccccc1` [Compound 85], the EC50 lay in the range of 1 to 9.9 nM. The same measure, in the same setting: in the case of `COCCOc1cc(-c2cnc([C@@H]3CCCN3C(=O)[C@H](C)NC(=O)OC)[nH]2)ccc1-c1ccc(-c2cnc([C@@H]3CCCN3C(=O)[C@@H](NC(=O)OC)C(C)C)[nH]2)cc1OCCOC` [Compound 86] it was 1 to 9.9 nM; in that of `COCCOc1cc(-c2cnc([C@@H]3CCCN3C(=O)[C@H](COC)NC(=O)OC)[nH]2)ccc1-c1ccc(-c2cnc([C@@H]3CCCN3C(=O)[C@@H](NC(=O)OC)C(C)C)[nH]2)cc1OCCOC` [Compound 87], 1 to 9.9 nM; in that of `COCCOc1cc(-c2cnc([C@@H]3CCCN3C(=O)[C@@H](NC(=O)OC)C(C)C)[nH]2)ccc1-c1ccc(-c2cnc([C@@H]3CCCN3C(=O)[C@H](NC(=O)OC)c3ccsc3)[nH]2)cc1OCCOC` [Compound 88], under 1 nM. The same measure, in the same setting: with `COCCOc1cc(-c2cnc([C@@H]3CCCN3C(=O)[C@@H](NC(=O)OC)C(C)C)[nH]2)ccc1-c1ccc(-c2cnc([C@@H]3CCCN3C(=O)[C@H](NC(=O)OC)c3cccs3)[nH]2)cc1OCCOC` [Compound 89] the figure was under 1 nM. As for `COCCOc1cc(-c2cnc([C@@H]3CCCN3C(=O)[C@@H](NC(=O)OC)C(C)C)[nH]2)ccc1-c1ccc(-c2cnc([C@@H]3CCCN3C(=O)[C@@H](c3ccccc3)N(C)C)[nH]2)cc1OCCOC` [Compound 90], the EC50 was in the range of 1 to 9.9 nM. With `COCCOc1c(-c2ccc(-c3cnc([C@@H]4CCCCN4C(=O)[C@@H](NC(=O)OC)C(C)C)[nH]3)cc2)ccc(-c2cnc([C@@H]3CCCCN3C(=O)[C@@H](NC(=O)OC)C(C)C)[nH]2)c1OCCOC` [Compound 91], the EC50 lay in the range of 1 to 9.9 nM. On the same count and under the same terms, with `COCCOc1cc(-c2cnc([C@@H]3CCCN3C(=O)[C@@H](NC(=O)OC)C(C)C)[nH]2)cc(OCCOC)c1-c1ccc(-c2cnc([C@@H]3CCCN3C(=O)[C@@H](NC(=O)OC)C(C)C)[nH]2)cc1` [Compound 92] the figure was under 1 nM.

The same test, now with this note: Hepatitis C virus, Huh-7; Table 1; EC50 range class; replicon luciferase, 72 h incubation, average EC50; read-out: Inhibition of HCV genotype 1b.
In the case of `COCCOc1c(-c2ccc(-c3cnc([C@H](C)NC(=O)[C@@H](NC(=O)OC)C(C)C)[nH]3)cc2)ccc(-c2cnc([C@@H]3CCCN3C(=O)[C@@H](NC(=O)OC)C(C)C)[nH]2)c1OCCOC` [Compound 39], the EC50 lay in the range of 1 to 9.9 nM. On the same count and under the same terms, in the case of `COCCOc1c(-c2ccc(-c3cnc([C@@H]4COCCN4C(=O)[C@@H](NC(=O)OC)C(C)C)[nH]3)cc2)ccc(-c2cnc([C@@H]3CCCN3C(=O)[C@@H](NC(=O)OC)C(C)C)[nH]2)c1OCCOC` [Compound 40] it was 1 to 9.9 nM; in that of `COCCOc1c(-c2ccc(-c3cnc([C@@H]4CSCN4C(=O)[C@@H](NC(=O)OC)C(C)C)[nH]3)cc2)ccc(-c2cnc([C@@H]3CCCN3C(=O)[C@@H](NC(=O)OC)C(C)C)[nH]2)c1OCCOC` [Compound 41], 1 to 9.9 nM; in that of `COC(=O)N[C@H](C(=O)N1CCC[C@H]1c1ncc(-c2ccc3cc2OCCOCCOCCOCCOCCOc2cc-3ccc2-c2cnc([C@@H]3CCCN3C(=O)[C@@H](NC(=O)OC)C(C)C)[nH]2)[nH]1)C(C)C` [Compound 42], 1 to 9.9 nM.

With `COC(=O)N[C@H](C(=O)N1CCC[C@H]1c1ncc(-c2ccc3c(c2)OCCOCCOCCOCCOCCOc2cc-3ccc2-c2cnc([C@@H]3CCCN3C(=O)[C@@H](NC(=O)OC)C(C)C)[nH]2)[nH]1)C(C)C` [Compound 43], the EC50 is 1 to 9.9 nM. Turning to `COC(=O)N[C@H](C(=O)N1CCC[C@H]1c1ncc(-c2ccc3c(c2)OCCOCCOCCOc2cc(-c4cnc([C@@H]5CCCN5C(=O)[C@@H](NC(=O)OC)C(C)C)[nH]4)ccc2-3)[nH]1)C(C)C` [Compound 44], the EC50 fell in the range of 1 to 9.9 nM. Take `COCCOc1c(-c2ccc(-c3cnc([C@@H]4CCCN4C(=O)[C@@H](NC(=O)OC)C(C)C)[nH]3)cc2)ccc(-c2cnc([C@@H]3CCCN3C(=O)[C@@H](c3ccccc3)N3CCCC3)[nH]2)c1OCCOC` [Compound 45]: the EC50 is under 1 nM.
